Test results published in patent US5863763A (British Technology Group Ltd., priority 1994, dated 1999).
Square brackets hold non-standard residues; d marks the D form. Ends that are not written are not given here. Peptide text beside a SMILES is read from it. Hyp = O=C(O)[C@@H]1C[C@@H](O)CN1

Assays:
[1] = type: in vitro ADME, Periplaneta americana; details: for peptide remaining after incubation with haemolymph: 24 h
Method: Degradation of the Met-callatostatins induced by the haemolymph was assessed by measuring the difference between the amount of added peptide at the start of the incubation period and the total immunoassayable material present at its conclusion. Since the radioimmunoassay (RIA) is carboxy-terminal specific, any degradation at the carboxy-terminus, as for example by metalloendopeptidases able to cleave the Phe-Gly bond (Lamango et al in Insect Biochem. Mol. Biol. 23, 801-808 (1993)), would render the molecule non-immunoreactive. On the other hand partial amino-terminus degradation would result in peptides able to bind to the anti-Met-callatostatin antibodies present in the RIA solution. The mixture remaining after incubation would, therefore, contain all intact molecules and any degradation products with a carboxy-terminus of sufficient length to cross-react within the RIA. Experiments were carried out in an insect Ringer's solution containing Hepes buffer (Holman et al in Insect Biochem 21 107-112 (1991)) at 24° C. and pH 7.0 over several time periods from 15 minutes to 24 hours. In some experiments EDTA (10 mM final concentration) was added with the purpose of inhibiting metalloendopeptidases. For both C. vomitoria and P. americana 1 μl of a […] peptide solution was added to 20 μl of Ringer's solution and 15 μl pooled haemolymph. For C. vomitoria 15 μl was taken from the pooled haemolymph of 10 vitellogenic females, and for P. americana the same volume was obtained from 3-4 ootheca-carrying females. At the conclusion of the incubation period 5 μl of an 8% solution of trichloroacetic acid was added to stop the degradation process. The mixture was centrifuged for 1 minute, an 40 μl of the supernatant was added to 20 μl of water, 0.1% trifluoroacetic acid (TFA) prior to chromatography. Chromatography was carried out on a Kromasil™ (Technicol) C18 250×4.6 mm, 5 μm, 300 Å column with a gradient of 0-30% CH3 CN, 0.1% TFA at a flow rate of 1 ml/min with a rate of change of 1.0%/min. Fractions that were immunoreactive in the Met-callatostatin RIA were rechromatographed on a Delta Pak™ (Waters) C18 250×2.1 mm, 5 μm, 300 Å column with a gradient of 10-30% CH3 CN, 0.1% TFA at a flow rate of 0.2 ml/min with a rate of change of 0.5%/min. Peaks of Met-callatostatin-immunoreactive material were measured by RIA, and amino acid sequences were determined.

[2] = tested on: Juvenile Hormone III release from corpora allata of virgin P. americana; assay: Radiochemical assay, inhibition of JH III release from isolated corpora allata of P. americana; type: cell-based, Periplaneta americana; details: 4- to 6-day-old virgin females, three hour incubations, read-out: IC50, inhibition of JH release from isolated CA
Method: (§1) Peptides identified from the extracts were synthesized (Affinity Research Products) and tested in radiochemical assays to determine their effects on the synthesis and release of juvenile hormone bisepoxide from the isolated CA of vitellogenic female C. vomitoria. Similar assays were also carried out on the CA of the cockroaches P. americana (4- to 6-day-old virgin females) and B. germanica (6-day-old virgin females). Details of the methods used have been published previously (C. vomitoria in Duve et al in Proc. Nat'l. Acad. Sci. USA 90 2456-2460 (1993), P. americana in Weaver et al in C Comp. Pharmacol. Toxicol. 107, 119-127 (1994), and Weaver, R. C. in J. Insect Physiol. 37, 111-118 (1991), and B. germanica in Piulachs et al in A Comp. Physiol. 102, 477-480 (1992). For C. vomitoria and P. americana the donor methyl group for incorporation into the JH was provided by L-[methyl-^14 C]methionine, 2.04 GBq/mmol (Amersham International plc), added to methionine-free TCC 199 medium to give a final concentration of 260 μM and for B. germanica by L-[methyl-^3 H]methionine, 3.03 TBq/mmol (Amersham) added to TCC 199 medium containing methionine to achieve a concentration of 100 μM and a final specific activity of 7.4 GBq/mmol.
For comparison, the activity of Met-callatostatin was also assayed. […]

[3] = tested on: JH release from CA of B. germanica; assay: Radiochemical assay, inhibition of JH release from isolated corpora allata of B. germanica; type: cell-based, Blattella germanica; details: results not shown
Method: as §1

[4] = tested on: juvenile hormone bisepoxide release from the CA of C. vomitoria; assay: Radiochemical assay, release of juvenile hormone bisepoxide from isolated CA of C. vomitoria; type: cell-based, Calliphora vomitoria; details: results not shown
Method: as §1

hindgut of C. vomitoria = assay: Inhibition of peristalsis of the hindgut (ileum) of C. vomitoria; design: species or system Calliphora vomitoria; details: for inhibition of normal peristaltic movements of the ileum: at 1 μm, normal movements 9-10/min
Method: Adult female C. vomitoria were fed sugar, water and meat for 7 days prior to studying the effect of synthetic peptides (Affinity Research Products Ltd, Nottingham) on gut motility. The stage of development of the oocytes of each fly was recorded to provide a physiological base line. The gut and reproductive system were transferred to a 100-μl Sylgard chamber (Sylgard 184, Dow Corning) and bathed in a Calliphora Ringer's solution (Duve et al in Regul. Pept. 35 145-159 (1991)). Peristaltic movements of the ileum and the other forms of contraction in the rest of the gut and reproductive musculature were observed under a microscope. The preparation was superfused with several washes of Ringer's solution, after which peristaltic movements of the ileum were counted over a 2-minute period. The bathing fluid was replaced with fresh Ringer's solution containing the test peptide and the counting repeated. This procedure could be carried out many times for a single preparation.
Peptide solutions were made up in Ringer's solution on the day of the experiments, which were carried out at 22° C. Approximately 50 female flies were used.
Each point represents the mean of 5-16 measurements from a number of different vitellogenic female flies (callatostatin is abbreviated to cast in the figure).

[5] = tested on: Met-callatostatin antisera; assay: Liquid-phase absorption of Met-callatostatin antisera (ICC control); type: binding, rabbit; details: at 50 μM
From the text: A variety of tissues including brain, corpora cardiaca-CA-hypocerebral ganglion complex, thoracicoabdominal ganglion, and the entire gut were fixed in aqueous Bouin's fluid, embedded in paraffin, and sectioned at 6 μm (Duve et al in Cell Tissue Res. 251, 399-415 (1988)). The peroxidase-antiperoxidase method of Sternberger (publ. "Immunocytochemistry" 1974)) was used in combination with the three Met-callatostatin antisera, from rabbits D1, D2 and D3, each of which gave essential, the same results. The results presented here were obtained mainly with antiserum from rabbit D1 bleed 5 used at a concentration of 1:2000 for 24 h at 4° C. Other tissues, including the brain, thoracicoabdominal ganglion, and the gut, complete with its neural connections, were fixed in 4% paraformaldehyde for whole-mount studies using the indirect immunofluorescence technique with either UV or confocal laser scanning microscopy. After fixation, tissues were washed in phosphate-buffered saline and permeabilized in methanol in phosphate-buffered saline. The tissues were washed in phosphate-buffered saline containing 0.2% bovine serum albumin and Triton X-100 (PBT buffer). Incubation of tissues with the Met-callatostatin antisera was at 4° C. over 24 h. […]

[6] = pooled haemolymph of C. vomitoria in insect Ringer's solution containing Hepes buffer, pH 7.0; details: C. vomitoria (10 vitellogenic females), 24° C., up to 24 hours
[7] = pooled haemolymph of P. americana in insect Ringer's solution containing Hepes buffer, pH 7.0; details: P. americana (3-4 ootheca-carrying females), 24° C., up to 24 hours
[8] = pooled haemolymph of 10 vitellogenic females in insect Ringer's solution containing Hepes buffer; details: C. vomitoria, 24° C., up to 24 hours

## CSCC[C@H](NC(=O)CNC(=O)[C@H](Cc1ccccc1)NC(=O)[C@H](CC(=O)O)NC(=O)[C@H](Cc1ccc(O)cc1)NC(=O)[C@@H]1CCCN1C(=O)[C@@H]1C[C@@H](O)CN1C(=O)CN)C(N)=O [[Hyp^2]Met-callatostatin, Gly-Hyp-Pro-Tyr-Asp-Phe-Gly-Met-NH2] (H-G[Hyp]PYDFGM-NH2)
[1]
  degradation by enzymes in the haemolymph of cockroaches: not

## CSCC[C@H](NC(=O)CNC(=O)[C@H](Cc1ccccc1)NC(=O)[C@H](CC(=O)O)NC(=O)[C@H](Cc1ccc(O)cc1)NC(=O)[C@@H]1C[C@@H](O)CN1C(=O)[C@@H]1CCCN1C(=O)CN)C(N)=O [[Hyp^3]Met-callatostatin, Gly-Pro-Hyp-Tyr-Asp-Phe-Gly-Met-NH2] (H-GP[Hyp]YDFGM-NH2)
[2]
  IC50: 0.1 nM
[3]
  IC50: 1000 nM
[4]
  effect on the release of juvenile hormone bisepoxide from the CA: neither peptide had any effect
Hindgut of C. vomitoria
  inhibition of normal peristaltic movements of the ileum: completely inhibited
[1]
  cleavage product identified after incubation: not
  degradation by enzymes in the haemolymph of cockroaches: not
  degradation in haemolymph: more resistant
  peptide remaining after incubation with haemolymph: less than 10%
[5]
  abolition of immunostaining by absorption of antisera: abolished the immunostaining

## GPPYDFGM-NH2
[6]
  fragment found: oxidised form of the parent compound, 2-hour
[7]
  fragment found: Tyr-Asp-Phe-Gly-Met-NH2 (SEQ ID NO:9), 2-hour
[8]
  fragment found: oxidised form of the parent compound

## GPPYDFGM-NH2 [Met-callatostatin, Gly-Pro-Pro-Tyr-Asp-Phe-Gly-Met-NH2]
[2]
  IC50: 0.1 nM
[3]
  IC50: 1000 nM
[4]
  effect on the release of juvenile hormone bisepoxide from the CA: neither peptide had any effect
Hindgut of C. vomitoria
  inhibition of normal peristaltic movements of the ileum: completely inhibited
Hindgut of C. vomitoria; monophasic dose-response curve
  IC50: 100 nM
[1]
  cleavage product identified after incubation: Tyr-Asp-Phe-Gly-Met-NH2
  degradation by enzymes in the haemolymph of cockroaches: able to degrade
  degradation in haemolymph: degraded to approximately the same extent as in C. vomitoria
  peptide remaining after incubation with haemolymph: less than 10%
[5]
  abolition of immunostaining by absorption of antisera: abolished the immunostaining

## GP[Hyp]YDFGM-NH2
[6]
  fragment found: oxidised form of the parent compound, 2-hour
[8]
  fragment found: oxidised form of the parent compound
